The supplement of paper PMC10627819

Legend:
B. subtilis 168 [1] = assay: fitness (endpoint OD595 vs no drug) (fraction); higher = more growth
Procedure, shortened: (§1)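 With the first reading as background, OD595 was measured every 30 min for 14 h in 384-well plates kept at 37 °C and inoculated at OD595 0.01. TSB, LB Lennox or CY was the medium. Fitness is the optical density at the transition into stationary phase divided by the robust mean of no-drug control wells, with a cap of 1.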

S. aureus Newman [2] = assay: as above
Procedure, shortened: as §1

S. pneumoniae D39V [3] = assay: as above
Procedure, shortened: as §1

B. subtilis 168 [4] = assay: Bliss interaction score (quartile over a dose matrix) (fitness difference); higher = more antagonism (negative = synergy)
Procedure, shortened: (§2)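 Growth was read as OD595 when cultures entered stationary phase, and each value was divided by the plate's robust no-drug mean and capped at 1. This normalised ratio is the fitness value, and fitness for each single drug came from the combination data. The Bliss score subtracts the expected fitness, taken as the product, from the observed fitness and is given as quartiles across technical, biological and donor/recipient replicates.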

S. aureus DSM 20231 = assay: as above
Procedure, shortened: as §2

S. aureus Newman [5] = assay: as above
Procedure, shortened: as §2

S. pneumoniae D39V [6] = assay: as above
Procedure, shortened: as §2
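For Bliss interaction score (quartile over a dose matrix) in this document: first quartile when negative (synergy) and third quartile when positive (antagonism).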
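For fitness (endpoint OD595 vs no drug) in this document: OD595 on entry to stationary phase over no-drug wells; at most 1.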

O=C(O)c1cn(C2CC2)c2cc(N3CCNCC3)c(F)cc2c1=O [Ciprofloxacin] + CCC[C@@H]1C[C@@H](C(=O)N[C@@H]([C@H]2O[C@H](SC)[C@H](O)[C@@H](O)[C@H]2O)[C@H](C)Cl)N(C)C1 [Clindamycin]
fitness, one replicate
Conditions	partner 0.0039 µg/mL	partner 0.0078 µg/mL	partner 0.015 µg/mL	partner 0.0156 µg/mL	partner 0.03 µg/mL	partner 0.06 µg/mL
B. subtilis 168 [1], first compound 0.0098 µg/mL	≥ 1	0.403	–	0.818	–	–
B. subtilis 168 [1], first compound 0.0195 µg/mL	0.903	0.394	–	0.742	–	–
B. subtilis 168 [1], first compound 0.039 µg/mL	0.627	0.326	–	0.557	–	–
S. pneumoniae D39V [3], first compound 0.25 µg/mL	–	–	0.708	–	0.454	0.259

Conditions	fitness
B. subtilis 168 [1], first compound 0.0098 µg/mL, partner 0.0625 µg/mL	0.508
B. subtilis 168 [1], first compound 0.0098 µg/mL, partner 0.125 µg/mL	0.394
B. subtilis 168 [1], first compound 0.0098 µg/mL, partner 0.25 µg/mL	0.373
B. subtilis 168 [1], first compound 0.0195 µg/mL, partner 0.0625 µg/mL	0.416
B. subtilis 168 [1], first compound 0.0195 µg/mL, partner 0.125 µg/mL	0.337
B. subtilis 168 [1], first compound 0.0195 µg/mL, partner 0.25 µg/mL	0.312
B. subtilis 168 [1], first compound 0.039 µg/mL, partner 0.0625 µg/mL	0.39
B. subtilis 168 [1], first compound 0.039 µg/mL, partner 0.125 µg/mL	0.311
B. subtilis 168 [1], first compound 0.039 µg/mL, partner 0.25 µg/mL	0.303
S. aureus Newman [2], first compound 0.0375 µg/mL, partner 0.0312 µg/mL	0.545
S. aureus Newman [2], first compound 0.0375 µg/mL, partner 0.0625 µg/mL	0.425
S. aureus Newman [2], first compound 0.0375 µg/mL, partner 0.125 µg/mL	0.11
S. aureus Newman [2], first compound 0.075 µg/mL, partner 0.0312 µg/mL	0.604
S. aureus Newman [2], first compound 0.075 µg/mL, partner 0.0625 µg/mL	0.475
S. aureus Newman [2], first compound 0.075 µg/mL, partner 0.125 µg/mL	0.153
S. aureus Newman [2], first compound 0.15 µg/mL, partner 0.0312 µg/mL	0.335
S. aureus Newman [2], first compound 0.15 µg/mL, partner 0.0625 µg/mL	0.292
S. aureus Newman [2], first compound 0.15 µg/mL, partner 0.125 µg/mL	0.104
S. pneumoniae D39V [3], first compound 0.125 µg/mL, partner 0.0125 µg/mL	0.763
S. pneumoniae D39V [3], first compound 0.125 µg/mL, partner 0.015 µg/mL	0.8
S. pneumoniae D39V [3], first compound 0.125 µg/mL, partner 0.025 µg/mL	0.531
S. pneumoniae D39V [3], first compound 0.125 µg/mL, partner 0.03 µg/mL	0.54
S. pneumoniae D39V [3], first compound 0.125 µg/mL, partner 0.05 µg/mL	0.2
S. pneumoniae D39V [3], first compound 0.125 µg/mL, partner 0.06 µg/mL	0.325
S. pneumoniae D39V [3], first compound 0.25 µg/mL, partner 0.0125 µg/mL	0.733
S. pneumoniae D39V [3], first compound 0.25 µg/mL, partner 0.025 µg/mL	0.494
S. pneumoniae D39V [3], first compound 0.25 µg/mL, partner 0.05 µg/mL	0.168
S. pneumoniae D39V [3], first compound 0.5 µg/mL, partner 0.0125 µg/mL	0.636
S. pneumoniae D39V [3], first compound 0.5 µg/mL, partner 0.015 µg/mL	0.564
S. pneumoniae D39V [3], first compound 0.5 µg/mL, partner 0.025 µg/mL	0.434
S. pneumoniae D39V [3], first compound 0.5 µg/mL, partner 0.03 µg/mL	0.431
S. pneumoniae D39V [3], first compound 0.5 µg/mL, partner 0.05 µg/mL	0.158
S. pneumoniae D39V [3], first compound 0.5 µg/mL, partner 0.06 µg/mL	0.294

Conditions	Bliss interaction score
B. subtilis 168 [4]	0.226
S. aureus DSM 20231	0.0603
S. aureus Newman [5]	0.157
S. pneumoniae D39V [6]	0.061

O=C(O)c1cn(C2CC2)c2cc(N3CCNCC3)c(F)cc2c1=O [Ciprofloxacin] + CN(C)c1cc(NC(=O)CNC(C)(C)C)c(O)c2c1C[C@H]1C[C@H]3[C@H](N(C)C)C(O)=C(C(N)=O)C(=O)[C@@]3(O)C(O)=C1C2=O [Tigecycline]
Conditions	fitness
B. subtilis 168 [1], first compound 0.0098 µg/mL, partner 0.039 µg/mL	0.919
B. subtilis 168 [1], first compound 0.0098 µg/mL, partner 0.078 µg/mL	0.889
B. subtilis 168 [1], first compound 0.0098 µg/mL, partner 0.156 µg/mL	0.821
B. subtilis 168 [1], first compound 0.0195 µg/mL, partner 0.039 µg/mL	0.758
B. subtilis 168 [1], first compound 0.0195 µg/mL, partner 0.078 µg/mL	0.697
B. subtilis 168 [1], first compound 0.0195 µg/mL, partner 0.156 µg/mL	0.713
S. aureus Newman [2], first compound 0.0375 µg/mL, partner 0.078 µg/mL	0.735
S. aureus Newman [2], first compound 0.0375 µg/mL, partner 0.156 µg/mL	0.735
S. aureus Newman [2], first compound 0.075 µg/mL, partner 0.039 µg/mL	0.656
S. aureus Newman [2], first compound 0.075 µg/mL, partner 0.078 µg/mL	0.698
S. aureus Newman [2], first compound 0.075 µg/mL, partner 0.156 µg/mL	0.683
S. aureus Newman [2], first compound 0.15 µg/mL, partner 0.039 µg/mL	0.0882
S. aureus Newman [2], first compound 0.15 µg/mL, partner 0.078 µg/mL	0.045
S. aureus Newman [2], first compound 0.15 µg/mL, partner 0.156 µg/mL	0.07
S. pneumoniae D39V [3], first compound 0.125 µg/mL, partner 0.325 µg/mL	0.944
S. pneumoniae D39V [3], first compound 0.125 µg/mL, partner 0.65 µg/mL	0.895
S. pneumoniae D39V [3], first compound 0.125 µg/mL, partner 1.3 µg/mL	0.945
S. pneumoniae D39V [3], first compound 0.125 µg/mL, partner 2.6 µg/mL	0.856
S. pneumoniae D39V [3], first compound 0.25 µg/mL, partner 0.65 µg/mL	0.795
S. pneumoniae D39V [3], first compound 0.25 µg/mL, partner 1.3 µg/mL	0.83
S. pneumoniae D39V [3], first compound 0.25 µg/mL, partner 2.6 µg/mL	0.767
S. pneumoniae D39V [3], first compound 0.5 µg/mL, partner 2.6 µg/mL	0.588

fitness, one replicate
Conditions	first compound 0.0098 µg/mL	first compound 0.0195 µg/mL	first compound 0.039 µg/mL	first compound 0.25 µg/mL
B. subtilis 168 [1], partner 0.125 µg/mL	≥ 1	0.964	0.709	–
B. subtilis 168 [1], partner 0.25 µg/mL	0.868	0.849	0.335	–
B. subtilis 168 [1], partner 0.5 µg/mL	0.901	0.828	0.313	–
S. pneumoniae D39V [3], partner 0.325 µg/mL	–	–	–	0.834

Conditions	Bliss interaction score
B. subtilis 168 [4]	-0.0691
S. aureus DSM 20231	0.0365
S. aureus Newman [5]	-0.0448
S. pneumoniae D39V [6]	-0.0751

O=C(O)c1cn(C2CC2)c2cc(N3CCNCC3)c(F)cc2c1=O [Ciprofloxacin] + CN[C@@H]1[C@H](O[C@H]2[C@H](O[C@H]3[C@H](O)[C@@H](O)[C@H](N=C(N)N)[C@@H](O)[C@@H]3N=C(N)N)O[C@@H](C)[C@]2(O)C=O)O[C@@H](CO)[C@H](O)[C@H]1O [Streptomycin]
fitness
Conditions	partner 1 µg/mL	partner 2 µg/mL	partner 4 µg/mL	partner 8 µg/mL
B. subtilis 168 [1], first compound 0.0098 µg/mL	–	0.861	–	–
B. subtilis 168 [1], first compound 0.0195 µg/mL	–	0.601	–	–
B. subtilis 168 [1], first compound 0.039 µg/mL	–	0.0408	0.0521	0.0363
S. aureus Newman [2], first compound 0.0375 µg/mL	0.737	0.7	–	–
S. aureus Newman [2], first compound 0.075 µg/mL	0.68	0.65	–	–
S. aureus Newman [2], first compound 0.15 µg/mL	–	0.0504	0.066	–
S. pneumoniae D39V [3], first compound 0.125 µg/mL	–	0.916	0.936	0.909
S. pneumoniae D39V [3], first compound 0.25 µg/mL	–	0.872	0.774	0.765

S. pneumoniae D39V [3], partner 16 µg/mL, one replicate
Conditions	fitness
first compound 0.125 µg/mL	0.739
first compound 0.25 µg/mL	0.668
first compound 0.5 µg/mL	0.379

Conditions	Bliss interaction score
B. subtilis 168 [4]	-0.109
S. aureus DSM 20231	-0.0869
S. aureus Newman [5]	0.0876
S. pneumoniae D39V [6]	-0.0549

COc1ccc(C[C@H](N)C(=O)N[C@H]2[C@@H](O)[C@H](n3cnc4c(N(C)C)ncnc43)O[C@@H]2CO)cc1 [Puromycin] + CN[C@@H]1[C@H](O[C@H]2[C@H](O[C@H]3[C@H](O)[C@@H](O)[C@H](N=C(N)N)[C@@H](O)[C@@H]3N=C(N)N)O[C@@H](C)[C@]2(O)C=O)O[C@@H](CO)[C@H](O)[C@H]1O [Streptomycin]
fitness
Conditions	first compound 0.39 µg/mL	first compound 0.78 µg/mL	first compound 1 µg/mL	first compound 1.56 µg/mL	first compound 2 µg/mL	first compound 4 µg/mL
B. subtilis 168 [1], partner 2 µg/mL	0.908	0.878	–	0.796	–	–
B. subtilis 168 [1], partner 4 µg/mL	0.27	0.143	–	0.106	–	–
B. subtilis 168 [1], partner 8 µg/mL	0.0282	0.0233	–	0.0357	–	–
S. aureus Newman [2], partner 1 µg/mL	≥ 1	0.968	–	0.991	–	–
S. aureus Newman [2], partner 2 µg/mL	≥ 1	0.964	–	0.939	–	–
S. pneumoniae D39V [3], partner 2 µg/mL	–	–	0.933	–	0.914	0.739
S. pneumoniae D39V [3], partner 4 µg/mL	–	–	0.956	–	0.906	0.746
S. pneumoniae D39V [3], partner 8 µg/mL	–	–	0.876	–	0.784	0.567

S. pneumoniae D39V [3], partner 16 µg/mL, one replicate
Conditions	fitness
first compound 1 µg/mL	0.748
first compound 2 µg/mL	0.643
first compound 4 µg/mL	0.254

Conditions	Bliss interaction score
B. subtilis 168 [4]	-0.226
S. aureus DSM 20231	-0.193
S. aureus Newman [5]	0.0431
S. pneumoniae D39V [6]	-0.0971
